Measured values reported in patent US12227479B2, “Dihydropyridines for the treatment of cognitive impairment or traumatic brain injury” (Icahn School of Medicine at Mount Sinai, priority 2017, dated 2025).
“And” between values parts separate entries of the source, which are not always exact repeats. Equal entries are not always repeated. “Also recorded” adds a separate entry of the source. Where two headings read alike, the source gives them in different places.

What was measured:
wt cortical neurons = experiment: Observed toxicity in wt cortical neuron cultures; format: cell-based; settings: 10 μM
synj1 5′-promoter region = experiment: synj1 5′-promoter luciferase assay (GLuc/SEAP dual reporter) in ApoE4 cortical neurons; format: cell-based; settings: for IC50: Cortical neurone, ApoE4 cortical neurons, 48 hours treatment, read-out: IC50 (synj1 transcriptional activity, luciferase assay); for inhibition of synj1 transcription activities: luciferase assay
Procedure: The in vitro luciferase assay uses a dual reporter system of Gaussia luciferase (GLuc) and secreted alkaline phosphatase (SEAP) tagged synj1 5′-promoter region. […] (FIG. 2). DMSO-treated conditions were used as controls and results were presented as percentage of the control (±SEM). One-way ANOVA was performed followed by post-hoc multiple comparison tests to determine the significance of differences between drug-treated vs DMSO control. *p<0.05; N=5-17/condition.

synj1 [1] = experiment: Western blot of synj1 protein levels in wt cortical neurons; format: cell-based
Procedure: Results were determined by measuring the synj1 protein levels as a percentage of the control (±SEM). One-way ANOVA was performed followed by post-hoc multiple comparison tests to determine the significance of differences between drug-treated vs DMSO control. **p<0.01; N=4-17/condition. […] DMSO-treated conditions were used as controls and results were presented as percentage of the control (±SEM). […] FIGS. 3A, B and C). […] FIGS. 3A, B and C). […] D) In vitro calcium channel inhibition assays. Results were presented as percentage of inhibition (±SEM). […] One-way ANOVA was performed followed by post-hoc multiple comparison tests to determine the significance of differences between drug-treated vs DMSO control. *p<0.05, **p<0.01, ***p<0.001; N=3/condition except in A) nimodipine-treated conditions with N=20.

Aβ40 [2] = experiment: Long-term daily IP treatment of AD transgenic mice: brain Aβ40 levels; format: in vivo, mouse; settings: 2.5 mg/kg/day IP for 6 months
Procedure: (§1) N=5-7/group. […] One-way ANOVA was performed followed by post-hoc multiple comparison tests to determine the significance of differences between drug-treated vs DMSO control. *p<0.05, **p<0.01.

synj1 [3] = experiment: Long-term daily IP treatment of AD transgenic mice: cortical brain synj1 levels; format: in vivo; settings: APP/PS1 transgenic mouse, 2.5 mg/kg/day IP for 6 months, compared to Tg vehicle controls
Procedure: (§2) Data is presented as % of wt control (vehicle-treated) time spent exploring novel objects. N=13-15/group. C) Cortical brain synj1 levels as well as D) PIP2 levels in Tg mice (vehicle-, nimodipine- or Example 9-treated) were compared to vehicle-treated controls (as 100%) in wildtype (wt) mice. N=7-13/group. One-way ANOVA was performed followed by post-hoc multiple comparison tests to determine the significance of differences between pairs of means. *p<0.05, **p<0.01, ***p<0.001, ****p<0.0001.

Aβ40 [4] = experiment: ELISA of Aβ40 levels in wt cortical neuronal culture; format: cell-based; settings: wt cortical neurons
Procedure: (§3) DMSO-treated conditions were used as controls and results were presented as percentage of the control (±SEM). […] FIGS. 3A, B and C). […] FIGS. 3A, B and C). […] D) In vitro calcium channel inhibition assays. Results were presented as percentage of inhibition (±SEM). […] One-way ANOVA was performed followed by post-hoc multiple comparison tests to determine the significance of differences between drug-treated vs DMSO control. *p<0.05, **p<0.01, ***p<0.001; N=3/condition except in A) nimodipine-treated conditions with N=20.

[5] = Brain and blood exposure after PO administration to male CD-1 mice; format: in vivo, mouse; settings: for concentration at 1 h / concentration at 3 h / Kp at 1 h / Kp at 3 h: mouse, PO 30 mg/kg, male CD-1 mice; for Kp at 1 h / Kp at 3 h: brain/blood, read-out: Brain/Blood ratio
in vivo = settings: male, CD-1, mouse
Aβ42 [6] = experiment: ELISA of Aβ42 levels in wt cortical neuronal culture; format: cell-based; settings: 10 μM, wt cortical neurons
Procedure: as §3

ApoE4 mice = experiment: Long-term daily oral treatment of ApoE KI mice: NOR test; format: in vivo, mouse; settings: 3 mg/kg/day oral for 6 months, vs vehicle-treated ApoE4 mice
Procedure: FIG. 7 Long-term in vivo treatment of Example 9 via daily oral administration at 3 mg/kg/day in ApoE KI mice. […] Data is presented as a percentage of ApoE3 control (vehicle-treated) time spent exploring novel objects. N=12-13/group. Cortical brain B) synj1 levels as well as C) pTau levels in ApoE4 mice (vehicle- or Example 9-treated) were compared to vehicle-treated controls (as 100%) in ApoE3 mice. N=6-9/group. One-way ANOVA was performed followed by post-hoc multiple comparison tests to determine the significance of differences between pairs of means. *p<0.05, **p<0.01.

[7] = tested on: Ca2+- L type calcium channel (dihydropyridine site); experiment: Calcium channel activity, Cerep radioligand displacement (dihydropyridine site, antagonist); format: binding
Procedure: as §3, with “[table] […] DMSO-treated” for “DMSO-treated”

Aβ42 [8] = experiment: Long-term daily oral treatment of ApoE KI mice: brain Aβ42 levels; format: in vivo, mouse; settings: 3 mg/kg/day oral
Procedure: (§4) FIG. 8 Long-term in vivo treatment of Example 9 via daily oral administration at 3 mg/kg/day in ApoE KI mice. […] N=5-8/group. Vehicle-treated conditions were used as controls and results were presented as percentage of the control (±SEM). One-way ANOVA was performed followed by post-hoc multiple comparison tests to determine the significance of differences between drug-treated vs DMSO control. *p<0.05, ***p<0.001.

Aβ40 [9] = experiment: Long-term daily oral treatment of ApoE KI mice: brain Aβ40 levels; format: in vivo, mouse; settings: 3 mg/kg/day oral
Procedure: as §4

Aβ42 [10] = experiment: Long-term daily IP treatment of AD transgenic mice: brain Aβ42 levels; format: in vivo, mouse; settings: 2.5 mg/kg/day IP for 6 months
Procedure: as §1

[11] = Blood pharmacokinetics after IV or PO administration to male CD-1 mice
APP/PS1 transgenic mouse = experiment: Long-term daily IP treatment of AD transgenic mice: NOR and Y maze behavior tests; format: in vivo; settings: 2.5 mg/kg/day IP for 6 months, vs vehicle Tg mice
Procedure: as §2

[12] = APP/PS1 transgenic mouse neocortex, vs Tg vehicle
[13] = male, CD-1, mouse, blood, iv, 1 mg/kg
[14] = male, CD-1, mouse, blood, po, 30 mg/kg

COCCOC(=O)C1=C(C)NC(C)=C(C(=O)OC(C)C)C1c1ccc(OC(F)(F)F)cc1 (centres unmarked) [Example 7]
toxicity in cortical neuron culture (wt cortical neurons): observed toxicities

COCCOC(=O)C1=C(C)NC(C)=C(C(=O)OC(C)C)C1c1ccc(C(F)(F)F)cc1 (centres unmarked) [Example 6, 3-isopropyl 5-(2-methoxyethyl) 2,6-dimethyl-4-(4-(trifluoromethyl)phenyl)-1,4-dihydropyridine-3,5-dicarboxylate]
IC50 (synj1 5′-promoter region): 1.89 µM | toxicity in cortical neuron culture (wt cortical neurons): observed toxicities

COCCOC(=O)C1=C(C)NC(C)=C(C(=O)OC(C)C)C1c1cccc([N+](=O)[O-])c1 (racemic) [nimodipine]
reduction of synj1 protein levels (synj1 [1]; 10 μM): 26.6% | decrease in soluble Aβ40 levels (Aβ40 [2]; [12]): 24.7% | inhibition of synj1 transcription activities (synj1 5′-promoter region; 10 μM): Nimodipine at 10 μM achieved a 43.0% inhibition of synj1 | IC50 (synj1 5′-promoter region): 3.99 µM | reduction of synj1 protein levels in brain neocortical regions (synj1 [3]): 75.8% | reduction of Aβ40 levels (Aβ40 [4]; 10 μM): 47.0% | reduction of Aβ40 levels (Aβ40 [4]; 10 μM, listed as Nimodipine): synj1 protein levels, a 47% reduction of Aβ40 levels and a | concentration at 1 h ([5]; blood, read-out: Blood conc.): 70 ng/mL | concentration at 3 h ([5]; blood, read-out: Blood conc.): 62 ng/mL | Kp at 1 h [5]: 1.9 | Kp at 3 h [5]: 1 | concentration at 1 h ([5]; brain, read-out: Brain conc.): 136 ng/mL | concentration at 3 h ([5]; brain, read-out: Brain conc.): 62 ng/mL | bioavailability (in vivo): 7% | AUC (in vivo; iv, 1 mg/kg): 187 ng·h/mL | Cmax (in vivo; iv, 1 mg/kg): 341 ng/mL | Vd (in vivo; iv, 1 mg/kg): 3.29 L/kg | clearance (in vivo; iv, 1 mg/kg): 88.8 mL/min/kg | half-life (in vivo; iv, 1 mg/kg): 0.58 h | AUC (in vivo; po, 30 mg/kg): 384 ng·h/mL | Cmax (in vivo; po, 30 mg/kg): 114 ng/mL | half-life (in vivo; po, 30 mg/kg): 7.27 h | reduction of Aβ42 levels (Aβ42 [6]): 12.1% | reduction of Aβ42 levels (Aβ42 [6]; listed as Nimodipine): 12.1% reduction of Aβ42 levels. Example 9 at 5 μM exhibited a

COCCOC(=O)C1=C(C)NC(C)=C(C(=O)OC(C)C)C1c1ccc(C(C)(C)C)cc1 (centres unmarked) [Example 9, 3-isopropyl 5-(2-methoxyethyl) 4-(4-(tert-butyl)phenyl)-2,6-dimethyl-1,4-dihydropyridine-3,5-dicarboxylate]
reduction of synj1 protein levels (synj1 [1]; 5 μM): 62.4% and 62.3% | levels of insoluble Aβ40 in Tg animal brains (in words) (Aβ40 [2]; AD transgenic mice): Reduction | decrease in insoluble Aβ40 levels (Aβ40 [2]; [12]): 23.7% | decrease in soluble Aβ40 levels (Aβ40 [2]; [12]): 12% | cognitive function in NOR test (in words) (ApoE4 mice): cognitive improvements | inhibition of synj1 transcription activities (synj1 5′-promoter region; 3 μM): 44.4% inhibition. | IC50 (synj1 5′-promoter region): 3.33 µM | reduction of synj1 protein levels in brain neocortical regions (synj1 [3]): 99.4% | toxicity in cortical neuron culture (wt cortical neurons): observed toxicities | reduction of Aβ40 levels (Aβ40 [4]; 5 μM): 82.6% | CNS penetrability (in words) ([5]; compared with nimodipine): better than nimodipine | concentration at 1 h ([5]; blood, read-out: Blood conc.): 518 ng/mL | concentration at 3 h ([5]; blood, read-out: Blood conc.): 607 ng/mL | Kp at 1 h [5]: 1.2 | Kp at 3 h [5]: 0.7 | concentration at 1 h ([5]; brain, read-out: Brain conc.): 604 ng/mL | concentration at 3 h ([5]; brain, read-out: Brain conc.): 421 ng/mL | calcium channel inhibition ([7]; 1 nM): no calcium channel | calcium channel inhibition ([7]; 0.1 μM): 81.3% | calcium channel inhibition compared to nimodipine (in words) ([7]; versus nimodipine): attenuated calcium channel blockade effects; also recorded: Example 9 has attenuated calcium channel inhibition versus | levels of insoluble Aβ42 in ApoE4 animal brains (in words) (Aβ42 [8]): trend of reduction | levels of soluble Aβ42 in ApoE4 animal brains (in words) (Aβ42 [8]): reduction | levels of soluble Aβ40 in ApoE4 animal brains (in words) (Aβ40 [9]): reduction | levels of insoluble Aβ42 in Tg animal brains (in words) (Aβ42 [10]; AD transgenic mice): trend of reduction | levels of soluble Aβ42 in Tg animal brains (in words) (Aβ42 [10]; AD transgenic mice): Reduction | decrease in insoluble Aβ42 levels (Aβ42 [10]; [12]): 27.4% | decrease in soluble Aβ42 levels (Aβ42 [10]; [12]): insoluble Aβ42 levels, a 19.3% decrease in soluble Aβ42 levels, | oral bioavailability (in words) ([11]; compared with nimodipine): better than nimodipine | AUC [11, 13]: 189 ng·h/mL | Cmax [11, 13]: 228 ng/mL | Vd [11, 13]: 8.2 L/kg | clearance [11, 13]: 85 mL/min/kg | half-life [11, 13]: 1.68 h | bioavailability ([11]; male, CD-1, mouse, blood, oral, 30 mg/kg): 73% | AUC [11, 14]: 4120 ng·h/mL | Cmax [11, 14]: 1010 ng/mL | half-life [11, 14]: 0.84 h | cognitive function in NOR and Y-maze tests (in words) (APP/PS1 transgenic mouse): cognitive improvements
